Data taken from US6996429B2, “Apparatus and method for detecting flinch response to nociceptive agents” (Regents of the Univeristy of California, San Diego, priority 2001, dated 2006).
Entries after “also recorded” stand apart in the source; their conditions may differ. Where two headings read alike, the source gives them in different places.

What was measured:
[1] = tested on: formalin induced flinching in the rat; assay: Effects of systemic and spinal drugs on formalin evoked flinching behavior (automated formalin test); type: in vivo
Experimental: To examine the effects of a drug on flinching behavior, rats received intraperitoneal or intrathecal injections of the drug. Intraperitoneal injections were delivered in volumes of 0.5 ml/kg.
Solutions were prepared fresh daily.
The percent inhibition is computed by dividing the response of each animal in a given group by the respective vehicle control group and multiplying by 100.
5. Test for intrathecal and intraperitoneal drugs on flinch behavior. […] Dose response curves of each agent were generated to relate drug effect to paw flinch and for comparison with previously reported data.

rat hind paw = settings: for Cumulative flinching behavior (Mean ± SD) Phase I / Cumulative flinching behavior (Mean ± SD) Phase II / Cumulative flinching behavior (Mean ± SD) Phase IIA / Cumulative flinching behavior (Mean ± SD) Phase IIB: N 12
[2] = Formalin, 0.5% vs. Formalin, 2.5%
[3] = No Injection vs. Formalin, 2.5%

Which “effect on the flinching response” value ([1]; intrathecal injection, sulfate) does the source give for `CN1CC[C@]23c4c5ccc(O)c4O[C@H]2[C@@H](O)C=C[C@H]3[C@H]1C5.O=S(=O)(O)O` [Morphine, morphine sulfate] here?
Its value is “potent dose dependent reduction of all phases of the flinching response; also recorded: dose-dependent reduction in all phases of the response to formalin”.

What about the “effect on the flinching response” value ([1]; systemic (intraperitoneal) injection, sulfate) of the same compound?
The value was “potent dose dependent reduction of all phases of the flinching response; also recorded: dose-dependent reduction in all phases of the response to formalin”.

What does the source list for `C=O` [Formalin]?
flinching behavior versus formalin concentration (rat hind paw; 0.5%/50 μL to 5.0%/50 μL, all phases, compared to saline, 1-way ANOVA p<0.002): concentration-related increase in flinching behavior; peak flinch rate Phase I (rat hind paw; 100 male Sprague Dawly rats, Phase I): ~50 flinches/min; peak flinch rate Phase II (rat hind paw; 100 male Sprague Dawly rats, Phase II): ~37 flinches/min; mean cumulative flinches (±SEM) Phase I (rat hind paw; 100 male rats, Phase I (0–9 min)): 203±9; mean cumulative flinches (±SEM) Phase II (rat hind paw; 100 male rats, Phase II): 1058±39; mean cumulative flinches (±SEM) Phase IIA (rat hind paw; 100 male rats, Phase IIA (10–40 min)): 792±27; mean cumulative flinches (±SEM) Phase IIB (rat hind paw; 100 male rats, Phase IIB (41–60 min)): 266±16; Post hoc group comparison Phase I (rat hind paw; Formalin, 0.5% vs. Formalin, 2.5%, Phase I): S (S = Significant difference between groups, p < 0.05, Tukey/Kramer post hoc test.); Post hoc group comparison Phase II (rat hind paw; Formalin, 0.5% vs. Formalin, 2.5%, Phase II): S (S = Significant difference between groups, p < 0.05, Tukey/Kramer post hoc test.); Post hoc group comparison Phase IIA (rat hind paw; [2]): S (S = Significant difference between groups, p < 0.05, Tukey/Kramer post hoc test.); Post hoc group comparison Phase IIB (rat hind paw; [2]): S (S = Significant difference between groups, p < 0.05, Tukey/Kramer post hoc test.); Post hoc group comparison Phase I (rat hind paw; Formalin, 0.5% vs. Formalin, 5.0%, Phase I): S (S = Significant difference between groups, p < 0.05, Tukey/Kramer post hoc test.); Post hoc group comparison Phase II (rat hind paw; Formalin, 0.5% vs. Formalin, 5.0%, Phase II): S (S = Significant difference between groups, p < 0.05, Tukey/Kramer post hoc test.); Post hoc group comparison Phase IIA (rat hind paw; Formalin, 0.5% vs. Formalin, 5.0%): S (S = Significant difference between groups, p < 0.05, Tukey/Kramer post hoc test.); Cumulative flinching behavior (Mean ± SD) Phase I (rat hind paw; Formalin, 0.5%, Phase I): 127 ± 66; Cumulative flinching behavior (Mean ± SD) Phase II (rat hind paw; Formalin, 0.5%, Phase II): 400 ± 185; Cumulative flinching behavior (Mean ± SD) Phase IIA (rat hind paw; Formalin, 0.5%): 301 ± 169; Cumulative flinching behavior (Mean ± SD) Phase IIB (rat hind paw; Formalin, 0.5%): 100 ± 79; Post hoc group comparison Phase II (rat hind paw; Formalin, 1.0% vs. Formalin, 2.5%, Phase II): S (S = Significant difference between groups, p < 0.05, Tukey/Kramer post hoc test.); Cumulative flinching behavior (Mean ± SD) Phase I (rat hind paw; Formalin, 1.0%, Phase I): 171 ± 55; Cumulative flinching behavior (Mean ± SD) Phase II (rat hind paw; Formalin, 1.0%, Phase II): 613 ± 265; Cumulative flinching behavior (Mean ± SD) Phase IIA (rat hind paw; Formalin, 1.0%): 495 ± 211; Cumulative flinching behavior (Mean ± SD) Phase IIB (rat hind paw; Formalin, 1.0%): 118 ± 100; Cumulative flinching behavior (Mean ± SD) Phase I (rat hind paw; Formalin, 2.5%, Phase I): 214 ± 75; Cumulative flinching behavior (Mean ± SD) Phase II (rat hind paw; Formalin, 2.5%, Phase II): 898 ± 266; Cumulative flinching behavior (Mean ± SD) Phase IIA (rat hind paw; Formalin, 2.5%): 662 ± 210; Cumulative flinching behavior (Mean ± SD) Phase IIB (rat hind paw; Formalin, 2.5%): 236 ± 148; Cumulative flinching behavior (Mean ± SD) Phase I (rat hind paw; Formalin, 5.0%, Phase I): 230 ± 84; Cumulative flinching behavior (Mean ± SD) Phase II (rat hind paw; Formalin, 5.0%, Phase II): 811 ± 194; Cumulative flinching behavior (Mean ± SD) Phase IIA (rat hind paw; Formalin, 5.0%): 659 ± 131; Cumulative flinching behavior (Mean ± SD) Phase IIB (rat hind paw; Formalin, 5.0%): 152 ± 88; Post hoc group comparison Phase II (rat hind paw; No Injection vs. Formalin, 1.0%, Phase II): S (S = Significant difference between groups, p < 0.05, Tukey/Kramer post hoc test.); Post hoc group comparison Phase IIA (rat hind paw; No Injection vs. Formalin, 1.0%): S (S = Significant difference between groups, p < 0.05, Tukey/Kramer post hoc test.); Post hoc group comparison Phase I (rat hind paw; No Injection vs. Formalin, 2.5%, Phase I): S (S = Significant difference between groups, p < 0.05, Tukey/Kramer post hoc test.); Post hoc group comparison Phase II (rat hind paw; No Injection vs. Formalin, 2.5%, Phase II): S (S = Significant difference between groups, p < 0.05, Tukey/Kramer post hoc test.); Post hoc group comparison Phase IIA (rat hind paw; [3]): S (S = Significant difference between groups, p < 0.05, Tukey/Kramer post hoc test.); Post hoc group comparison Phase IIB (rat hind paw; [3]): S (S = Significant difference between groups, p < 0.05, Tukey/Kramer post hoc test.); Post hoc group comparison Phase I (rat hind paw; No Injection vs. Formalin, 5.0%, Phase I): S (S = Significant difference between groups, p < 0.05, Tukey/Kramer post hoc test.); Post hoc group comparison Phase II (rat hind paw; No Injection vs. Formalin, 5.0%, Phase II): S (S = Significant difference between groups, p < 0.05, Tukey/Kramer post hoc test.); Post hoc group comparison Phase IIA (rat hind paw; No Injection vs. Formalin, 5.0%): S (S = Significant difference between groups, p < 0.05, Tukey/Kramer post hoc test.); Post hoc group comparison Phase I (rat hind paw; Saline vs. Formalin, 1.0%, Phase I): S (S = Significant difference between groups, p < 0.05, Tukey/Kramer post hoc test.); Post hoc group comparison Phase II (rat hind paw; Saline vs. Formalin, 1.0%, Phase II): S (S = Significant difference between groups, p < 0.05, Tukey/Kramer post hoc test.); Post hoc group comparison Phase I (rat hind paw; Saline vs. Formalin, 2.5%, Phase I): S (S = Significant difference between groups, p < 0.05, Tukey/Kramer post hoc test.); Post hoc group comparison Phase II (rat hind paw; Saline vs. Formalin, 2.5%, Phase II): S (S = Significant difference between groups, p < 0.05, Tukey/Kramer post hoc test.); Post hoc group comparison Phase IIA (rat hind paw; Saline vs. Formalin, 2.5%): S (S = Significant difference between groups, p < 0.05, Tukey/Kramer post hoc test.); Post hoc group comparison Phase IIB (rat hind paw; Saline vs. Formalin, 2.5%): S (S = Significant difference between groups, p < 0.05, Tukey/Kramer post hoc test.); Post hoc group comparison Phase I (rat hind paw; Saline vs. Formalin, 5.0%, Phase I): S (S = Significant difference between groups, p < 0.05, Tukey/Kramer post hoc test.); Post hoc group comparison Phase II (rat hind paw; Saline vs. Formalin, 5.0%, Phase II): S (S = Significant difference between groups, p < 0.05, Tukey/Kramer post hoc test.); Post hoc group comparison Phase IIA (rat hind paw; Saline vs. Formalin, 5.0%): S (S = Significant difference between groups, p < 0.05, Tukey/Kramer post hoc test.); formalin concentration at which the maximum (plateau) of flinching was observed (rat hind paw; range 0.5 to 5%): 2.5%

Which “ED50 Phase II (Mean and 95% confidence intervals)” value ([1]; IT (intrathecal), Phase II (10–60 min), from % MPE dose effect curves) does the source give for `C[C@]12N[C@H](Cc3ccccc31)c1ccccc12` [MK801] here?
The value was 9.5 (87-1.0) μg.

And the “ED50 Phase IIA (Mean and 95% confidence intervals)” value ([1]; IT (intrathecal), Phase IIA (10–40 min), from % MPE dose effect curves)?
Its value is 7.3 (43-1.2) μg.

And the “effect on the flinching response” value ([1]; intrathecal injection)?
The value was “potent dose dependent reduction in Phase II but not Phase I”.

What about the “effect on the flinching response” value ([1]; systemic (intraperitoneal) injection) of the same compound?
Its value is “potent dose dependent reduction in Phase II but not Phase I”.

What about the “flinching behavior at the lowest doses” value ([1]; systemic delivery, lowest doses) of the same compound?
The value was “apparent increase in flinching behavior at the lowest doses”.
